From PubChem BioAssay (NCI) come the findings set out here.

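Five compound concentrations were applied to cells in 96-well plates for 48 hours; endpoints were derived by simple linear interpolation of the resulting dose-response curve. GI50: concentration for 50% inhibition of growth. TGI is the concentration that stops growth completely.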

What all share (test): NCI anticancer screen, dose series, 48 h
Experiment [1] concerns COLO 205 colon.
Experiment [2] has as its system HCC-2998 colon.
Experiment [3] concerns HOP-92 NSCLC.
Experiment [4] deals with K-562 leukemia.
Experiment [5] has as its system NCI/ADR-RES ovarian.
For experiment [6], the system named is SF-295 CNS.
Experiment [7] has as its system SF-539 CNS.

As for `CN(C)CCCNC(=O)c1cc(NC(=O)c2cc(NC(=O)c3cc(NC(=O)CCc4c[nH]c5ccccc45)cn3C)cn2C)cn1C`, the GI50 in experiment [1] was more than 100 µM; in experiment [2], more than 100 µM; in experiment [3], 67.1 µM; in experiment [4], more than 100 µM; in experiment [5], more than 100 µM; in experiment [6], more than 100 µM. In experiment [7], the GI50 is more than 100 µM. For the same compound, the TGI in experiment [1], in experiment [2], in experiment [3], in experiment [4], in experiment [5] and in experiment [6] was more than 100 µM in each case. The TGI in experiment [7] is more than 100 µM.
With `O=C1c2ccccc2-c2c1c1ccccc1c(=O)n2CCNCCNCCn1c2c(c3ccccc3c1=O)C(=O)c1ccccc1-2`, the GI50 in experiment [1] is 2.62 µM; in experiment [2], 0.279 µM; in experiment [3], 17.4 µM; in experiment [4], 0.33 µM; in experiment [5], 1.11 µM; in experiment [6] it was 0.0917 µM. The GI50 in experiment [7] was 0.542 µM. Further, the TGI in experiment [1] was more than 60.8 µM; in experiment [2], 14.9 µM; in experiment [3], 39.7 µM; in experiment [4] it was more than 100 µM; in experiment [5] it was 11.1 µM; in experiment [6], 10.8 µM. This compound came in with a TGI in experiment [7] of 12.3 µM.
In the case of `C=C(CN1CCc2ccccc2C1)c1ccc(C(=O)Nc2ccc(N)cc2)cc1`, the GI50 is 22.7 µM in experiment [1]; 14.6 µM in experiment [2]; 0.0854 µM in experiment [3]; 1.94 µM in experiment [4]; 19.1 µM in experiment [5]; 16.5 µM in experiment [6]. The GI50 in experiment [7] is 19.3 µM. In addition, the TGI was 60.6 µM in experiment [1]; 43 µM in experiment [2]; 12.7 µM in experiment [3]; more than 100 µM in experiment [4]; more than 100 µM in experiment [5]; 59.4 µM in experiment [6]. In experiment [7], the TGI was determined as 57.4 µM.
Regarding `COC(=O)/C(=C\c1c(C)[nH]c2ccccc12)S(=O)(=O)c1ccccc1`, the GI50 in experiment [1] is 7.45 µM; in experiment [2] it was 4.89 µM; in experiment [3], 4.14 µM; in experiment [4], more than 100 µM; in experiment [5], 4.19 µM; in experiment [6] it was 3.07 µM. In addition, the GI50 in experiment [7] is 3.4 µM. In addition, the TGI is 22.1 µM in experiment [1]; 17.4 µM in experiment [2]; 51.2 µM in experiment [3]; more than 100 µM in experiment [4]; 67.7 µM in experiment [5]; 15.7 µM in experiment [6]. In experiment [7], this compound came in with a TGI of 11.5 µM.
As for `O=C(NC(=S)Nc1ccc(Cl)cc1)c1ccccc1`, the GI50 was more than 100 µM in experiment [1]; more than 100 µM in experiment [2]; 8.63 µM in experiment [3]; more than 100 µM in experiment [4]; more than 100 µM in experiment [5]; more than 65.1 µM in experiment [6]. In addition, the GI50 in experiment [7] is more than 90.7 µM. Also, the TGI in experiment [1] was more than 100 µM; in experiment [2] it was more than 100 µM; in experiment [3], 68.5 µM; in experiment [4] it was more than 100 µM; in experiment [5], more than 100 µM; in experiment [6], more than 100 µM. This compound also had a TGI in experiment [7] of more than 100 µM.
As for `OCCCCC#Cc1ccccc1C#Cc1ccccc1C(F)(F)F`, the GI50 was 17.7 µM in experiment [1]; 3.64 µM in experiment [2]; 6.14 µM in experiment [3]; 1.09 µM in experiment [4]; 4.2 µM in experiment [5]; 2.34 µM in experiment [6]. For the same compound, the GI50 in experiment [7] was 12 µM. In addition, the TGI in experiment [1] stood at 33.9 µM; in experiment [2], 13.9 µM; in experiment [3], 18.4 µM; in experiment [4] it was 13.9 µM; in experiment [5] it was 16.2 µM; in experiment [6] it was 6.7 µM. This compound also returned a TGI in experiment [7] of 25.2 µM.
For `O=C(Nc1ccc(Cl)cc1)c1cc2ccccc2cc1O`, the GI50 in experiment [1] is 3.22 µM; in experiment [2], 2.55 µM; in experiment [3], 1.41 µM; in experiment [4], 3.02 µM; in experiment [5], 2.81 µM; in experiment [6] it was 2.96 µM. The GI50 in experiment [7] was 4.01 µM. Further, the TGI in experiment [1] was 18.7 µM; in experiment [2], 7.65 µM; in experiment [3] it was 7.77 µM; in experiment [4] it was more than 100 µM; in experiment [5] it was more than 100 µM; in experiment [6], more than 100 µM. The compound further displayed a TGI in experiment [7] of more than 100 µM.
Regarding `CCN(CC)CCOc1ccc(/C=C2\CC3C4CC=C5C[C@@H](N6CCCC6)CC[C@]5(C)C4CC[C@]3(C)[C@H]2O)cc1OC` (stereo not given in full), the GI50 is 5.4 µM in experiment [1]; 1.71 µM in experiment [2]; 8.14 µM in experiment [3]; 4.49 µM in experiment [4]; 13.3 µM in experiment [5]; 3.86 µM in experiment [6]. For the same compound, the GI50 in experiment [7] is 1.91 µM. Besides, the TGI in experiment [1] is 23 µM; in experiment [2], 4.79 µM; in experiment [3], 32.7 µM; in experiment [4] it was more than 100 µM; in experiment [5], 47.5 µM; in experiment [6] it was 13.5 µM. For the same compound, the TGI in experiment [7] came out at 3.93 µM.
For the compound `N=C(N)CCCCCCCCC(=N)N`, the GI50 in experiment [1] was 7.86 µM; in experiment [2] it was 28.5 µM; in experiment [3] it was 19.1 µM; in experiment [4], 19.7 µM; in experiment [5] it was 14.8 µM; in experiment [6], 23.5 µM. Besides, the GI50 in experiment [7] was 35.4 µM. Also, the TGI in experiment [1] is 20.9 µM; in experiment [2], more than 100 µM; in experiment [3], more than 100 µM; in experiment [4], more than 100 µM; in experiment [5] it was more than 100 µM; in experiment [6], 81.3 µM. Besides, the TGI in experiment [7] was more than 100 µM.
`Cc1nc2cccc(NCc3ccc(C(=O)NO)cc3)c2c(=O)n1-c1ccccc1`: the GI50 in experiment [1] is 1.87 µM; in experiment [2] it was 1.81 µM; in experiment [3] it was 1.93 µM; in experiment [4], 2.52 µM; in experiment [5], 1.53 µM; in experiment [6], 1.76 µM. In experiment [7], the GI50 was 1.89 µM. The TGI was 3.97 µM in experiment [1]; 3.27 µM in experiment [2]; 4.46 µM in experiment [3]; more than 100 µM in experiment [4]; 7.16 µM in experiment [5]; 3.54 µM in experiment [6]. This compound also returned a TGI in experiment [7] of 4.05 µM.
